How the values were obtained:
[1] = target: T1, KRas-mediated phosphorylation of ERK in MKN1 cells (Homo sapiens, UniProt P01116); test: Inhibition of KRas-mediated phosphorylation of ERK (HTRF), MKN1 cells; type: cell-based; conditions: MKN1 cells (KRas WT); HTRF pERK; 3 h incubation
T1 construct: pERK HTRF read-out
Experimental: Inhibition of KRas Phosphorylation of ERK (HTRF) by Exemplary Compounds of Formula (Ia) or (Ib)
Cisbio HTRF Advanced pERK Assay Catalog #64AERPEH • Cells: MKN1, PSN1 • Procedure: • 1. Day 1: Seed 6,000 cells/well −25 μl/well in 384-well white solid bottom plate; RPM1_10% FBS. Incubate overnight at 37 °C/5% CO2. • 2.

[2] = target: T2, KRas-mediated phosphorylation of ERK in H358 cells (Homo sapiens, UniProt P01116, G12C); test: Inhibition of KRas-mediated phosphorylation of ERK (HTRF), H358 cells; type: cell-based; conditions: HTRF pERK, 3 h incubation
T2 construct: pERK HTRF read-out

[3] = target: T3, KRas-mediated phosphorylation of ERK in A549 cells (Homo sapiens, UniProt P01116, G12S); test: Inhibition of KRas-mediated phosphorylation of ERK (HTRF), A549 cells; type: cell-based; conditions: HTRF pERK, 3 h incubation
T3 construct: pERK HTRF read-out

[4] = target: T4, KRas WT (Homo sapiens, UniProt P01116); test: KRas binding assay, TR-FRET displacement of Cy5 labelled tracer; conditions: 60-minute incubation at room temperature, 1% DMSO, pH 7.5
T4 construct: Biotinylated KRas (corresponding to amino acids 1-169, produced at Accelegan Inc.); biotin (biotinylated); purchased Accelegan Inc
Outline: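 Tb-streptavidin captured biotinylated KRas (1-169) in HEPES 50 mM, DTT 1 mM, MgCl2 5 mM, Tween-20 0.005% (pH 7.5), alongside tracer and compound at 1% final DMSO. One hour at RT, then read; IC50 from 4-parameter POC fit.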

[5] = target: T5, KRas G12C (Homo sapiens, UniProt P01116, G12C); test: as above; conditions: 60-minute incubation at room temperature, 1% DMSO, pH 7.5
T5 construct: Biotinylated KRas (corresponding to amino acids 1-169, produced at Accelegan Inc.); biotin (biotinylated); purchased Accelegan Inc
Outline: (§1)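 Final conditions: 1% DMSO, pH 7.5 HEPES buffer, 60 min, room temperature. Protein: biotin-KRas 1-169 with terbium streptavidin. Output: IC50, four-parameter fit of POC.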

[6] = target: T6, KRas G12S (Homo sapiens, UniProt P01116, G12S); test: as above; conditions: 60-minute incubation at room temperature, 1% DMSO, pH 7.5
T6 construct: Biotinylated KRas (corresponding to amino acids 1-169, produced at Accelegan Inc.); biotin (biotinylated); purchased Accelegan Inc
Outline: as §1

T2 sequence (P01116 1-188 isoform P01116-2 G12C): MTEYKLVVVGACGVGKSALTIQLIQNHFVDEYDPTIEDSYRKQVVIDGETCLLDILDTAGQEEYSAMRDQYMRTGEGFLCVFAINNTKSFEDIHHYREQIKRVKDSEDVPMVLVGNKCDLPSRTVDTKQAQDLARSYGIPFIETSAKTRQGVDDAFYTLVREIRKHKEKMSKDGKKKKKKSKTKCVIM
T1 sequence (P01116 1-188 isoform P01116-2): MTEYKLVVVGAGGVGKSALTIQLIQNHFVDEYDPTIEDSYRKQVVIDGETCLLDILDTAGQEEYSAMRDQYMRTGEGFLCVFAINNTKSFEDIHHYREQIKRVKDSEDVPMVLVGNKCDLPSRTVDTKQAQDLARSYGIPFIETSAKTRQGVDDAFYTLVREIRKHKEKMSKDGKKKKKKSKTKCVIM
T3 sequence (P01116 1-188 isoform P01116-2 G12S): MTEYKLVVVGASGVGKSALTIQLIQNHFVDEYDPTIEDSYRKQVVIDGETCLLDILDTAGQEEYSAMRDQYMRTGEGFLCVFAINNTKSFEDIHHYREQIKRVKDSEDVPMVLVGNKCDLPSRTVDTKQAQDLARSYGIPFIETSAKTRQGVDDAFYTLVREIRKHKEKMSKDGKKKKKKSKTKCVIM
T6 sequence (P01116 1-169 isoform P01116-2 G12S): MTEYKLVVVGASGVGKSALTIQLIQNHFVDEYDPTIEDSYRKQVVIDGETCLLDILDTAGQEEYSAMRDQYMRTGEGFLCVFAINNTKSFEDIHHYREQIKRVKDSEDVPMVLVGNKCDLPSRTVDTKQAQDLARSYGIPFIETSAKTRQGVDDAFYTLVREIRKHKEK
T5 sequence (P01116 1-169 isoform P01116-2 G12C): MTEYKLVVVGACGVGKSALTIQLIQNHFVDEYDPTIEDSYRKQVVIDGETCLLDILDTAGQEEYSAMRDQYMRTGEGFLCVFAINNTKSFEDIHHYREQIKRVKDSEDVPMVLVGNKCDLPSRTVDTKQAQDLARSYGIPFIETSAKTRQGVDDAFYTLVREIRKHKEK
T4 sequence (P01116 1-169 isoform P01116-2): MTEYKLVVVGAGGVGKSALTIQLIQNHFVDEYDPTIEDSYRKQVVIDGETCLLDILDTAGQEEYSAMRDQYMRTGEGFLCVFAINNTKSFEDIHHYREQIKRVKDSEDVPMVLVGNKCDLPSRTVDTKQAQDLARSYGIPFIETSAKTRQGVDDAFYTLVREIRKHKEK

| Structure (SMILES) | IC50 [1] | IC50 [2] | IC50 [3] | IC50 [4] | IC50 [5] | IC50 [6] |
| --- | --- | --- | --- | --- | --- | --- |
| N#Cc1c(N)sc2c(F)ccc(-c3c(Cl)cc4c(N5CCC(C(=O)Oc6ccccc6F)CC5)nc(OC[C@@]56CCCN5C[C@H](F)C6)nc4c3F)c12 [Example 288, 2-fluorophenyl 1-(7-(2-amino-3-cyano-7-fluorobenzo[b]thiophen-4-yl)-6-chloro-8-fluoro-2-(((2R,7aS)-2-fluorotetrahydro-1H-pyrrolizin-7a(5H)-yl)methoxy)quinazolin-4-yl)piperidine-4-carboxylate] | 246 nM | 24 nM | 77 nM | 143 nM | 9 nM | 20 nM |
| Cc1ccn(C(=O)[C@@H]2C[C@H]2CNc2nc(OC[C@@]34CCCN3C[C@H](F)C4)nc3c(F)c(-c4ccc(F)c5sc(N)c(C#N)c45)c(Cl)cc23)n1 [Example 181, 2-amino-4-(6-chloro-8-fluoro-2-(((2R,7aS)-2-fluorotetrahydro-1H-pyrrolizin-7a(5H)-yl)methoxy)-4-((((trans)-2-(3-methyl-1H-pyrazole-1-carbonyl)cyclopropyl)methyl)amino)quinazolin-7-yl)-7-fluorobenzo[b]thiophene-3-carbonitrile] | 111 nM | 71 nM | 15 nM | 17 nM | 10 nM | 9 nM |
| Cc1ccn(C(=O)C2CCN(c3nc(OC[C@@]45CCCN4C[C@H](F)C5)nc4c(F)c(-c5ccc(F)c6sc(N)c(C#N)c56)c(Cl)cc34)C2)n1 (stereo partly drawn) [Example 139, 2-amino-4-(6-chloro-8-fluoro-2-(((2R,7aS)-2-fluorotetrahydro-1H-pyrrolizin-7a(5H)-yl)methoxy)-4-(3-(3-methyl-1H-pyrazole-1-carbonyl)pyrrolidin-1-yl)quinazolin-7-yl)-7-fluorobenzo[b]thiophene-3-carbonitrile] | 1210 nM | 412 nM | 46 nM | 16 nM | 5 nM | 5 nM |
| CCc1c(F)ccc2cc(O)cc(N3CCc4c(nc(OC[C@@]56CCCN5C[C@H](F)C6)nc4N4CCCC(C(=O)n5ccc(C)n5)CC4)C3)c12 (stereo partly drawn) [Example 145, (1-(7-(8-ethyl-7-fluoro-3-hydroxynaphthalen-1-yl)-2-(((2R,7aS)-2-fluorotetrahydro-1H-pyrrolizin-7a(5H)-yl)methoxy)-5,6,7,8-tetrahydropyrido[3,4-d]pyrimidin-4-yl)azepan-4-yl)(3-methyl-1H-pyrazol-1-yl)methanone] | 4010 nM | 2810 nM | 137 nM | 331 nM | 237 nM | 27 nM |
| N#Cc1c(N)sc2c(F)ccc(-c3c(Cl)cc4c(N5CCC(C(=O)Oc6cccc(F)c6)CC5)nc(OC[C@@]56CCCN5C[C@H](F)C6)nc4c3F)c12 [Example 302, 3-fluorophenyl 1-(7-(2-amino-3-cyano-7-fluorobenzo[b]thiophen-4-yl)-6-chloro-8-fluoro-2-(((2R,7aS)-2-fluorotetrahydro-1H-pyrrolizin-7a(5H)-yl)methoxy)quinazolin-4-yl)piperidine-4-carboxylate] | 286 nM | 18 nM | 79 nM | 164 nM | 12 nM | 25 nM |
| CCc1c(F)ccc2cc(O)cc(-c3ncc4c(N5CCC(C(=O)N6CCCCC6=O)CC5)nc(OC[C@@]56CCCN5C[C@H](F)C6)nc4c3F)c12 [Example 154, 1-(1-(7-(8-ethyl-7-fluoro-3-hydroxynaphthalen-1-yl)-8-fluoro-2-(((2R,7aS)-2-fluorotetrahydro-1H-pyrrolizin-7a(5H)-yl)methoxy)pyrido[4,3-d]pyrimidin-4-yl)piperidine-4-carbonyl)piperidin-2-one] | 2870 nM | 7230 nM | 6280 nM | 131 nM | 338 nM | 257 nM |

Stronger by IC50 [1], values ahead:

| IC50 [1] | IC50 [2] | IC50 [3] | IC50 [4] | IC50 [5] | IC50 [6] | Structure (SMILES) |
| --- | --- | --- | --- | --- | --- | --- |
| 78 nM | 19 nM | 21 nM | 21 nM | 12 nM | 17 nM | COCCN(C(C)=O)C(=O)C1CCN(c2nc(OC[C@@]34CCCN3C[C@H](F)C4)nc3c(F)c(-c4ccc(F)c5sc(N)c(C#N)c45)c(Cl)cc23)CC1 [Example 305, N-acetyl-1-(7-(2-amino-3-cyano-7-fluorobenzo[b]thiophen-4-yl)-6-chloro-8-fluoro-2-(((2R,7aS)-2-fluorotetrahydro-1H-pyrrolizin-7a(5H)-yl)methoxy)quinazolin-4-yl)-N-(2-methoxyethyl)piperidine-4-carboxamide] |
| 72 nM | 14 nM | 1210 nM | 9 nM | 12 nM | 18 nM | CCc1c(F)ccc2cc(O)cc(-c3ncc4c(N5CCN(C(=O)n6ccnn6)CC5)nc(OC[C@@]56CCCN5C[C@H](F)C6)nc4c3F)c12 [Example 151, (4-(7-(8-ethyl-7-fluoro-3-hydroxynaphthalen-1-yl)-8-fluoro-2-(((2R,7aS)-2-fluorotetrahydro-1H-pyrrolizin-7a(5H)-yl)methoxy)pyrido[4,3-d]pyrimidin-4-yl)piperazin-1-yl)(1H-1,2,3-triazol-1-yl)methanone] |
| 70 nM | 428 nM | 337 nM | 23 nM | 54 nM | 44 nM | CCc1c(F)ccc2cc(O)cc(-c3ncc4c(N5CCC(C(=O)OC)CC5)nc(OC[C@@]56CCCN5C[C@H](F)C6)nc4c3F)c12 [Example 16, methyl 1-(7-(8-ethyl-7-fluoro-3-hydroxynaphthalen-1-yl)-8-fluoro-2-(((2R,7aS)-2-fluorotetrahydro-1H-pyrrolizin-7a(5H)-yl)methoxy)pyrido[4,3-d]pyrimidin-4-yl)piperidine-4-carboxylate] |
| 57 nM | 108 nM | 6 nM | 15 nM | 6 nM | 4 nM | CCc1c(F)ccc2cc(O)cc(-c3ncc4c(NC[C@H]5C[C@@H]5C(=O)n5ccc(C)n5)nc(OC[C@@]56CCCN5C[C@H](F)C6)nc4c3F)c12 [Example 159, ((1S,2S)-2-(((7-(8-ethyl-7-fluoro-3-hydroxynaphthalen-1-yl)-8-fluoro-2-(((2R,7aS)-2-fluorotetrahydro-1H-pyrrolizin-7a(5H)-yl)methoxy)pyrido[4,3-d]pyrimidin-4-yl)amino)methyl)cyclopropyl)(3-methyl-1H-pyrazol-1-yl)methanone] |
| 53 nM | 3 nM | 2 nM | 9 nM | 2 nM | 2 nM | Cc1ccn(C(=O)[C@H]2CCCN(c3nc(OC[C@@]45CCCN4C[C@H](F)C5)nc4c(F)c(-c5ccc(F)c6sc(N)c(C#N)c56)c(Cl)cc34)CC2)n1 (atropisomer, axis not shown; (aS)) [Example 170, 2-amino-4-((S)-6-chloro-8-fluoro-2-(((2R,7aS)-2-fluorotetrahydro-1H-pyrrolizin-7a(5H)-yl)methoxy)-4-((S)-4-(3-methyl-1H-pyrazole-1-carbonyl)azepan-1-yl)quinazolin-7-yl)-7-fluorobenzo[b]thiophene-3-carbonitrile] |

Source: US20260356856A1, “KRAS G12S AND G12C INHIBITORS” (MIRATI THERAPEUTICS, INC., priority 2023, published 2026)
